In ChEMBL document CHEMBL1201862, “PubChem BioAssay data set” (2004):
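Each compound was tested at five concentrations against cells in 96-well plates for 48 hours. Here, GI50 denotes the concentration required for 50% inhibition of growth.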 Activity calls are given as the source filed them. Rule as the data show it: active = GI50 up to about 1.1 µM and inactive = higher.

Columns and labels:
Assay in all cases: NCI anticancer screen, dose series, 48 h
[1] = tested on: HOP-18
[2] = tested on: LXFL 529
[3] = tested on: DLD-1
[4] = tested on: SNB-78
[5] = tested on: M19-MEL
[6] = tested on: BT-549
[7] = tested on: DMS-273
[8] = tested on: XF498
[9] = tested on: RXF 631

SMILES	GI50 [1]	GI50 [2]	GI50 [3]	GI50 [4]	GI50 [5]	GI50 [6]	GI50 [7]	GI50 [8]	GI50 [9]
NC(CSC(c1ccccc1)(c1ccccc1)c1ccccc1)C(=O)O (configuration not stated)	4.14 µM (inactive)	7.76 µM (inactive)	0.7 µM (active)	2.61 µM (inactive)	3.19 µM (inactive)	0.975 µM (active)	0.235 µM (active)	–	–
Nc1nc[n+](Cc2ccccc2)c2ncn(Cc3ccccc3)c12	> 100 µM (inactive)	> 100 µM (inactive)	80.2 µM (inactive)	75 µM (inactive)	> 100 µM (inactive)	–	> 100 µM (inactive)	–	–
N=C1SCCS1	–	> 100 µM (inactive)	> 100 µM (inactive)	> 100 µM (inactive)	> 100 µM (inactive)	–	–	> 100 µM (inactive)	–
COC(=O)/C(=N\N)C(C(=O)C(=O)Nc1nnc(S)[nH]1)c1nc2ccc([N+](=O)[O-])cc2nc1O (configuration not stated)	> 100 µM (inactive)	> 100 µM (inactive)	> 100 µM (inactive)	> 100 µM (inactive)	> 100 µM (inactive)	–	> 100 µM (inactive)	–	> 100 µM (inactive)
CO[C@@H]1C=C[C@@]23c4cc5c(cc4C(=O)O[C@H]2CN(C)[C@H]3C1)OCO5	> 100 µM (inactive)	> 100 µM (inactive)	> 100 µM (inactive)	> 100 µM (inactive)	> 100 µM (inactive)	–	> 100 µM (inactive)	> 100 µM (inactive)	–
C=C(Br)C(C)(Br)CCC(Br)C(C)(C)Br (configuration not stated)	> 100 µM (inactive)	20.5 µM (inactive)	37 µM (inactive)	26.2 µM (inactive)	17 µM (inactive)	–	19.2 µM (inactive)	–	–
O=C1/C(=C\c2ccccc2)c2ccccc2N1/N=C\c1ccccc1	> 100 µM (inactive)	–	59 µM (inactive)	> 100 µM (inactive)	97.7 µM (inactive)	–	> 100 µM (inactive)	> 100 µM (inactive)	–
C[N+](C)(C)CC(=O)N/N=C(/Cc1nc2ccc(Cl)cc2nc1O)C1=NS(=O)(=O)c2cc(S(N)(=O)=O)c(Cl)cc2N1	–	–	> 100 µM (inactive)	–	> 100 µM (inactive)	–	–	–	–
O=C1OC2C=CC1C1(CCOC1=O)C2 (configuration not stated)	> 100 µM (inactive)	> 100 µM (inactive)	> 100 µM (inactive)	–	> 100 µM (inactive)	–	> 100 µM (inactive)	> 100 µM (inactive)	–
O=S(=O)(c1ccccc1)C1CN(Cc2ccccc2)CCN(Cc2ccccc2)C1	–	11.3 µM (inactive)	12.1 µM (inactive)	–	14.4 µM (inactive)	80.5 µM (inactive)	12.7 µM (inactive)	18.8 µM (inactive)	–
COc1ccccc1/C=C(\NC(=O)c1ccccc1)c1nc2ccc(Cl)cc2[nH]1	26.2 µM (inactive)	21.1 µM (inactive)	23.8 µM (inactive)	38.9 µM (inactive)	32.9 µM (inactive)	–	37.1 µM (inactive)	34.4 µM (inactive)	–
CCOc1ccccc1NC(=O)C(=O)C(C(=O)c1ccc2ccccc2c1)C1OC(=O)c2ccccc21 (configuration not stated)	16.6 µM (inactive)	5.21 µM (inactive)	15.2 µM (inactive)	11.6 µM (inactive)	–	–	12.3 µM (inactive)	–	6.18 µM (inactive)
COc1ccccc1OCC(COC(=O)Nc1ccc(C)cc1)OC(=O)Nc1ccc(C)cc1 (configuration not stated)	18.4 µM (inactive)	27.1 µM (inactive)	16 µM (inactive)	26.7 µM (inactive)	–	–	16.7 µM (inactive)	–	19.4 µM (inactive)
[O-][n+]1c2cc(CBr)c(CBr)cc2[n+]([O-])c2c(O)cccc21	2.39 µM (inactive)	1.56 µM (inactive)	1.41 µM (inactive)	1.94 µM (inactive)	1.73 µM (inactive)	–	1.68 µM (inactive)	2.35 µM (inactive)	3.15 µM (inactive)
CC1=CCN(c2ccccn2)OC1c1ccccc1 (configuration not stated)	> 100 µM (inactive)	> 100 µM (inactive)	> 100 µM (inactive)	> 100 µM (inactive)	> 100 µM (inactive)	–	> 100 µM (inactive)	> 100 µM (inactive)	> 100 µM (inactive)
O=C(Nc1nnc(S)[nH]1)C(=O)C1C(=O)Nc2ccccc2[S+]1[O-] (configuration not stated)	> 100 µM (inactive)	> 100 µM (inactive)	–	–	> 100 µM (inactive)	–	> 100 µM (inactive)	–	> 100 µM (inactive)
O=C1N=C2Sc3ccc4ccccc4c3N2C1=O	15 µM (inactive)	18.7 µM (inactive)	31.1 µM (inactive)	26.4 µM (inactive)	36.1 µM (inactive)	–	22.8 µM (inactive)	19.2 µM (inactive)	20.8 µM (inactive)
CC1(C)COC(C23C4C5C2C2C3C4C52I)=N1 (configuration not stated)	> 100 µM (inactive)	> 100 µM (inactive)	> 100 µM (inactive)	> 100 µM (inactive)	> 100 µM (inactive)	–	–	> 100 µM (inactive)	–
CCOC(=O)C1C(=O)c2cccc(OC)c2C2COC(=O)N12 (configuration not stated)	> 100 µM (inactive)	> 100 µM (inactive)	> 100 µM (inactive)	–	> 100 µM (inactive)	–	> 100 µM (inactive)	> 100 µM (inactive)	> 100 µM (inactive)
c1ccc(SC(CCCCC(Sc2ccccc2)Sc2ccccc2)Sc2ccccc2)cc1	–	> 100 µM (inactive)	> 100 µM (inactive)	> 100 µM (inactive)	> 100 µM (inactive)	–	> 100 µM (inactive)	> 100 µM (inactive)	> 100 µM (inactive)
O=c1[nH]nc(-c2ccccc2)c(-c2ccccc2)c1-n1nc(-c2ccccc2)c2ccccc2c1=O	> 100 µM (inactive)	46.8 µM (inactive)	76.7 µM (inactive)	> 100 µM (inactive)	> 100 µM (inactive)	–	89.5 µM (inactive)	–	–
CCCCCCCCCCCCCC(=O)OCC1OC(OC)C(NC(=O)N(CCCl)N=O)C(O)C1O (configuration not stated)	> 100 µM (inactive)	16.3 µM (inactive)	20.8 µM (inactive)	25.5 µM (inactive)	–	–	12.9 µM (inactive)	15.9 µM (inactive)	20.9 µM (inactive)
Cc1ccc(NC(=O)C(=O)C(C(=O)/C=C/c2ccccc2)C2OC(=O)c3ccccc32)c(C)c1 (configuration not stated)	–	> 100 µM (inactive)	> 100 µM (inactive)	> 100 µM (inactive)	> 100 µM (inactive)	–	–	> 100 µM (inactive)	> 100 µM (inactive)
O=[N+]([O-])c1ccc(C2CC(c3ccccc3Cl)=Nc3ccccc3S2)cc1 (configuration not stated)	3.3 µM (inactive)	2.84 µM (inactive)	2.3 µM (inactive)	16.1 µM (inactive)	10.5 µM (inactive)	–	4.71 µM (inactive)	7.13 µM (inactive)	5.74 µM (inactive)
CC1/C=C/[C@@]2(C)CCC(C(C)(C)O)C2C(O)C[C@](C)(O)/C=C/C1 (some centres not stated)	> 100 µM (inactive)	> 100 µM (inactive)	> 100 µM (inactive)	> 100 µM (inactive)	–	–	> 100 µM (inactive)	> 100 µM (inactive)	–
COC1C(O)C(C)OC(OC2C(Oc3cccc4c(O)c5c(=O)oc6ccc(C)c7c(=O)oc(c34)c5c67)OC(C)C(O)C2O)C1O (configuration not stated)	2.45 µM (inactive)	–	1.26 µM (inactive)	2 µM (inactive)	1.04 µM (active)	1.9 µM (inactive)	2.1 µM (inactive)	0.824 µM (active)	–
COc1cc2c(c(OC)c1OC)-c1ccc(SC)c(=O)cc1[C@@H](NCc1cccc([N+](=O)[O-])c1)CC2	> 100 µM (inactive)	< 0.01 µM (active)	< 0.01 µM (active)	< 0.01 µM (active)	< 0.01 µM (active)	–	< 0.01 µM (active)	< 0.01 µM (active)	< 0.01 µM (active)
COc1ccc2oc(-c3ccc(OC)c(OC)c3OC)cc(=O)c2c1	–	39.4 µM (inactive)	49.7 µM (inactive)	–	57 µM (inactive)	–	–	39.7 µM (inactive)	–
CN(C)CCN1C(=O)c2cccc3cc([N+](=O)[O-])cc(c23)C1=O [MITONAFIDE]	0.652 µM (active)	0.682 µM (active)	0.873 µM (active)	2 µM (inactive)	0.377 µM (active)	0.904 µM (active)	0.0514 µM (active)	0.303 µM (active)	0.171 µM (active)
